By IC50 is commonly meant the concentration that gives 50% inhibition. A low value points to greater potency.

For experiment [1], the target named is T1, Solute carrier family 15 member 1 (Homo sapiens, UniProt P46059).
T1 sequence (P46059 whole entry): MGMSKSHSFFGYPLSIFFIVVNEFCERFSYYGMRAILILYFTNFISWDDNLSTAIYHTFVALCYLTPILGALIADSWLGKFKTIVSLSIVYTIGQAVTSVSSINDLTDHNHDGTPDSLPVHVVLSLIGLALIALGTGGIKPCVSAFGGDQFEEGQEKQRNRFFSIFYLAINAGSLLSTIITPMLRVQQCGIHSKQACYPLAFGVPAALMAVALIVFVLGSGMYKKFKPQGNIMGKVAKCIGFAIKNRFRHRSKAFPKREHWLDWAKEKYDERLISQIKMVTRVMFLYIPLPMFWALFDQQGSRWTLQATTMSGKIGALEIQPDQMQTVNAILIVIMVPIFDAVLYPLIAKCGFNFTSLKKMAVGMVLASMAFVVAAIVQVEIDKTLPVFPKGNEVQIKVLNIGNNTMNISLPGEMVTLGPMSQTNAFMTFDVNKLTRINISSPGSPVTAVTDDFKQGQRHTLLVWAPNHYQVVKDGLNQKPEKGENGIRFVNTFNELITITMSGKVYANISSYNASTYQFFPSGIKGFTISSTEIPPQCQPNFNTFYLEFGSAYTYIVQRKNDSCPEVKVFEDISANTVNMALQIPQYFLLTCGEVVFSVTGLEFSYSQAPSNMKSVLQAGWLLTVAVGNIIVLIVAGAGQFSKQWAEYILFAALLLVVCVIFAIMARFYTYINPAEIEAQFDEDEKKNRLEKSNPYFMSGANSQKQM
The experiment is described as follows: TP_TRANSPORTER: inhibition of Gly-Sar uptake (Gly-Sar: 20 uM) in PEPT1-expressing CHO cells. Type of experiment: functional, cell-based.

The target in experiment [2] is T2, Solute carrier family 15 member 1 (Homo sapiens) (UniProt P46059).
T2 sequence (whole entry): T1 sequence (P46059 whole entry)
The experiment is described as follows: TP_TRANSPORTER: uptake in PEPT1-expressing CHO cells. The format is functional, cell-based.

Compound `CCOC(=O)[C@H](CCc1ccccc1)N[C@@H](C)C(=O)N1CCC[C@H]1C(=O)O` came in with a half-maximal inhibitory concentration (IC50) in experiment [1] of 4.5 mM.
With `CC1=C(C(=O)O)N2C(=O)[C@@H](NC(=O)[C@H](N)C3=CCC=CC3)[C@H]2SC1` [CEPHRADINE], the Activity entry in experiment [2] is “substrate [+]”. Besides, the IC50 in experiment [1] is 15.3 mM.
For the compound `C[C@](N)(Cc1ccc(O)c(O)c1)C(=O)O` [METHYLDOPA], the IC50 in experiment [1] is 152 mM.
On to `N[C@@H](Cc1ccc(O)c(O)c1)C(=O)O` [LEVODOPA], for which the IC50 in experiment [1] turned out to be 141 mM.
In the case of `N[C@@H](C(=O)N[C@@H]1C(=O)N2C(C(=O)O)=C(Cl)CS[C@H]12)c1ccccc1` [CEFACLOR ANHYDROUS], the Activity result in experiment [2] was “substrate [+]”. In addition, in experiment [1], the IC50 stood at 8.2 mM.

These data come from ChEMBL document CHEMBL2074372, “CHO/hPEPT1 cells overexpressing the human peptide transporter (hPEPT1) as an alternative in vitro model for peptidomimetic drugs” (J Pharm Sci, 1999).
